# Data from patent US10844032B2, “Substituted benzofuran, benzothiophene and indole Mcl-1 inhibitors” (Vanderbilt University, priority 2012, dated 2020).
# Biological target: recombinant Mcl-1 (residues 172-327) (Homo sapiens (Human), UniProt Q07820)
# Experiment: Bak peptide fluorescence polarization anisotropy competition assay, Mcl-1
# Format: binding
# Settings: Table 2, Ki range; FITC-Bak peptide 10 nM, Mcl-1 14 nM; read-out: Ki for inhibition of Mcl-1
# Chain of recombinant Mcl-1 (residues 172-327) (Q07820 172-327): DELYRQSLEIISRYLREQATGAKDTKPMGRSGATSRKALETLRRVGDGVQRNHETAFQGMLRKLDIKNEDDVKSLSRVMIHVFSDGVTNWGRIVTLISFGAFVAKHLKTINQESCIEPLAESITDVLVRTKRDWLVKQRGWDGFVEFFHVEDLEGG
row,Structure (SMILES),Ki [nM]
1,"Cc1cc(OCCCc2c(C(=O)NS(=O)(=O)CCNC(=O)c3ccco3)[nH]c3cc(Cl)ccc23)cc(C)c1Cl [Example 232, 6-chloro-3-(3-(4-chloro-3,5-dimethylphenoxy)propyl)-N-((2-(furan-2-carboxamido)ethyl)sulfonyl)-1H-indole-2-carboxamide]",≤ 100
2,"COC(=O)c1cc(S(=O)(=O)NC(=O)c2[nH]c3cc(Cl)ccc3c2CCCOc2cc(C)c(Cl)c(C)c2)oc1C [Example 264, methyl 5-(N-(6-chloro-3-(3-(4-chloro-3,5-dimethylphenoxy)propyl)-1H-indole-2-carbonyl)sulfamoyl)-2-methylfuran-3-carboxylate]",≤ 100
3,"Cc1cc(OCCCc2c(C(=O)NS(=O)(=O)c3ccccc3)[nH]c3c(-c4c(C)n[nH]c4C)cccc23)cc(C)c1Cl [Example 305, 3-(3-(4-chloro-3,5-dimethylphenoxy)propyl)-7-(3,5-dimethyl-1H-pyrazol-4-yl)-N-(phenylsulfonyl)-1H-indole-2-carboxamide]",≤ 100
4,"Cc1cc(OCCCc2c(C(=O)NS(=O)(=O)c3ccccc3)[nH]c3c(-c4c(COCCN(C)C)nn(C)c4C)cccc23)cc(C)c1Cl [Example 308, 3-(3-(4-chloro-3,5-dimethylphenoxy)propyl)-7-(3-((2-(dimethylamino)ethoxy)methyl)-1,5-dimethyl-1H-pyrazol-4-yl)-N-(phenylsulfonyl)-1H-indole-2-carboxamide]",≤ 100

# Same assay, conditions: read-out: Ki for inhibition of Mcl-1
row,Structure (SMILES),Ki [nM]
1,"Cc1cc(OCCCc2c(C(=O)NS(=O)(=O)c3ccc(OCc4ccccc4)cc3)[nH]c3ccccc23)cc(C)c1Cl [Example 136, N-((4-(benzyloxy)phenyl)sulfonyl)-3-(3-(4-chloro-3,5-dimethylphenoxy)propyl)-1H-indole-2-carboxamide]",101 to 299
2,"Cc1cc(OCCCc2c(C(=O)NS(=O)(=O)CCNC(=O)c3cc(C)n(Cc4ccncc4)c3C)[nH]c3ccccc23)cc(C)c1Cl [Example 195, 3-(3-(4-chloro-3,5-dimethylphenoxy)propyl)-N-((2-(2,5-dimethyl-1-(pyridin-4-ylmethyl)-1H-pyrrole-3-carboxamido)ethyl)sulfonyl)-1H-indole-2-carboxamide]",101 to 299
3,"Cc1ccccc1-c1ccc2c(CCCOc3cccc4ccccc34)c(C(=O)O)sc2c1 [Example 12, 3-(3-(naphthalen-1-yloxy)propyl)-6-(o-tolyl)benzo[b]thiophene-2-carboxylic acid]",1000 to 9990
4,"Cc1cc(OCCCc2c(C(=O)NS(=O)(=O)CCNC(=O)c3ccccc3F)[nH]c3ccccc23)cc(C)c1Cl [Example 160, 3-(3-(4-chloro-3,5-dimethylphenoxy)propyl)-N-((2-(2-fluorobenzamido)ethyl)sulfonyl)-1H-indole-2-carboxamide]",301 to 500
5,"CS(=O)(=O)NC(=O)c1[nH]c2ccccc2c1CCCOc1ccc2ccccc2c1 [Example 37, N-(methylsulfonyl)-3-(3-(naphthalen-2-yloxy)propyl)-1H-indole-2-carboxamide]",1000 to 9990
6,"Cc1cc(OCCCc2c(C(=O)NS(=O)(=O)CCNC(=O)c3cncs3)[nH]c3ccccc23)cc(C)c1Cl [Example 189, N-(2-(N-(3-(3-(4-chloro-3,5-dimethylphenoxy)propyl)-1H-indole-2-carbonyl)sulfamoyl)ethyl)thiazole-5-carboxamide]",501 to 999
7,"CS(=O)(=O)NC(=O)c1[nH]c2ccccc2c1CCCOc1ccccc1 [Example 30, N-(methylsulfonyl)-3-(3-phenoxypropyl)-1H-indole-2-carboxamide]",10000 to 50000
8,"Cc1cc(OCCCc2c(C(=O)NS(C)(=O)=O)[nH]c3c(C)c(Cl)ccc23)cc(C)c1Cl [Example 119, 6-chloro-3-(3-(4-chloro-3,5-dimethylphenoxy)propyl)-7-methyl-N-(methylsulfonyl)-1H-indole-2-carboxamide]",101 to 299
9,"Cc1cc(OCCCc2c(C(=O)NS(=O)(=O)CCNC(=O)c3cccn3Cc3ccccc3)[nH]c3ccccc23)cc(C)c1Cl [Example 200, N-((2-(1-benzyl-1H-pyrrole-2-carboxamido)ethyl)sulfonyl)-3-(3-(4-chloro-3,5-dimethylphenoxy)propyl)-1H-indole-2-carboxamide]",101 to 299
10,"CS(=O)(=O)NC(=O)c1[nH]c2ccccc2c1CCCOc1cccc2c1CCC2 [Example 74, 3-(3-((2,3-dihydro-1H-inden-4-yl)oxy)propyl)-N-(methylsulfonyl)-1H-indole-2-carboxamide]",1000 to 9990
11,"Cc1cc(OCCCc2c(C(=O)NS(=O)(=O)c3ccc(OCc4ccccc4)nc3)[nH]c3ccccc23)cc(C)c1Cl [Example 144, N-((6-(benzyloxy)pyridin-3-yl)sulfonyl)-3-(3-(4-chloro-3,5-dimethylphenoxy)propyl)-1H-indole-2-carboxamide]",301 to 500
12,Cc1ccoc1C(=O)NCCS(=O)(=O)NC(=O)c1[nH]c2ccccc2c1CCCOc1cc(C)c(Cl)c(C)c1 [Example 156],501 to 999
13,"Cc1cc(OCCCc2c(C(=O)NS(=O)(=O)c3ccccc3)[nH]c3c(-c4ccsc4)cccc23)cc(C)c1Cl [Example 96, 3-(3-(4-chloro-3,5-dimethylphenoxy)propyl)-N-(phenylsulfonyl)-7-(thiophen-3-yl)-1H-indole-2-carboxamide]",101 to 299
14,"Cc1cc(OCCCc2c(C(=O)NS(=O)(=O)C3CCN(C(=O)C4CCCCC4)CC3)[nH]c3cc(Cl)ccc23)cc(C)c1Cl [Example 212, 6-chloro-3-(3-(4-chloro-3,5-dimethylphenoxy)propyl)-N-((1-(cyclohexanecarbonyl)piperidin-4-yl)sulfonyl)-1H-indole-2-carboxamide]",301 to 500

# Further lines, results first:
row,Ki [nM],Structure (SMILES)
1,101 to 299,"COC(=O)c1ccc(S(=O)(=O)NC(=O)c2[nH]c3cc(Cl)ccc3c2CCCOc2cc(C)c(Cl)c(C)c2)n1C [Example 265, methyl 5-(N-(6-chloro-3-(3-(4-chloro-3,5-dimethylphenoxy)propyl)-1H-indole-2-carbonyl)sulfamoyl)-1-methyl-1H-pyrrole-2-carboxylate]"
2,101 to 299,"Cc1cc(OCCCc2c(C(=O)NS(=O)(=O)c3ccc(C(=O)N4CCOCC4)o3)[nH]c3cc(Cl)ccc23)cc(C)c1Cl [Example 262, 6-chloro-3-(3-(4-chloro-3,5-dimethylphenoxy)propyl)-N-((5-(morpholine-4-carbonyl)furan-2-yl)sulfonyl)-1H-indole-2-carboxamide]"
3,301 to 500,"O=C(NCCS(=O)(=O)NC(=O)c1[nH]c2cc(Cl)ccc2c1CCCOc1cccc2ccccc12)c1ccc2cc[nH]c2c1 [Example 239, N-((2-(1H-indole-6-carboxamido)ethyl)sulfonyl)-6-chloro-3-(3-(naphthalen-1-yloxy)propyl)-1H-indole-2-carboxamide]"
4,101 to 299,"Cc1cc(OCCCc2c(C(=O)NS(=O)(=O)c3ccccc3)n(Cc3cccnc3)c3cc(Cl)ccc23)cc(C)c1Cl [Example 272, 6-chloro-3-(3-(4-chloro-3,5-dimethylphenoxy)propyl)-N-(phenylsulfonyl)-1-(pyridin-3-ylmethyl)-1H-indole-2-carboxamide]"
5,101 to 299,"Cc1cc(OCCCc2c(C(=O)NS(=O)(=O)CCNC(=O)c3cccn3Cc3cccc(F)c3)[nH]c3cc(Cl)ccc23)cc(C)c1Cl [Example 246, 6-chloro-3-(3-(4-chloro-3,5-dimethylphenoxy)propyl)-N-((2-(1-(3-fluorobenzyl)-1H-pyrrole-2-carboxamido)ethyl)sulfonyl)-1H-indole-2-carboxamide]"
